Data set [1] has as its target NAE (heterodimer of APPBP1 and UBA3) (Homo sapiens (Human), UniProt Q8TBC4). Kind of data set: Nedd8 conjugation inhibitory activity (AlphaScreen assay). The settings on record: purified NAE, GST-UBC12, Biotin-Nedd8, ATP. The data set is classed as biochemical. (In general: Alpha assays give light when donor and acceptor beads are brought close together.)
The test system of data set [2] is human acute lymphoblastic leukemia (ALL) CCRF-CEM cell lines. In words: Antitumor effect on tumor cells transplanted into mice 3. The settings on record: for T/C15 / RTV comparison with the Comparative Example / RTV comparison with the control on day 15 / BWC15 Mean ± SD: CCRF-CEM xenograft in nude mice; for T/C15 / BWC15 Mean ± SD: 50 mg/kg/day intravenous; for T/C15: administration days 1, 8, day 15; for RTV comparison with the Comparative Example / RTV comparison with the control on day 15: compound hydrochlorides intravenously, Dunnett's test; for BWC15 Mean ± SD: body weight change rate, days 1, 8, day 15; for change of the body weight compared with the control: CCRF-CEM xenograft mice. The class given is in vivo. As for the experimental part:
The length and the width of the implanted tumor and the body weight were measured. The tumor volume (TV) was calculated using the following equation (equation D). TV(mm3)=(length×width^2)/2, wherein the unit of length and width is mm (equation D).
Thereafter, the length and the width of the tumor and the body weight (BWn) on day n were measured over time in the same manner, and the TVn of each mouse was calculated. Further, the relative tumor volume (RTVn) was calculated based on the TVn of each mouse using the following equation (equation E); the treatment/control (T/C) value (%) was calculated based on the mean RTVn of each drug administration group using the following equation (equation F); and the weight change rate (BWCn) was calculated using the following equation (equation G). RTVn=TVn/TV1 (equation E) T/Cn(%)=(mean RTV of each drug administration group on the last day of the test)/(mean RTV of the control group on the last day of the test)×100 (equation F) BWCn (%)=(BWn−BW1)/BW1×100 (equation G) FIGS. 1 and 2, and Table 21 below show the results.
The tumor growth inhibitory effects on human tumors were evaluated as in Test Example 5, except that the compound hydrochloride obtained in Example 122, the compound hydrochloride (Example 64), and human acute lymphoblastic leukemia (ALL) CCRF-CEM cell lines were used, and the animals were assigned to each group in accordance with a stratified randomization procedure when the TV reached 140 to 380 mm3.
At this time, the cell lines were washed in PBS, and suspended in 50% PBS and 50% Matrigel basement membrane matrix (#356237; produced by BD Biosciences) at a concentration of 1×10^8 cells/mL. 0.1 mL of this cell suspension was subcutaneously implanted to the right chest of 6-week-old BALB/cAJcl-nu/nu mice (nude mice) (produced by CLEA Japan, Inc.). The compound hydrochloride (Example 122) was intravenously administered in an amount of 5 mL per 1 kg of body weight on days 1 and 8, and the compound hydrochloride (Example 133) was intravenously administered in an amount of 5 mL per 1 kg of body weight on days 1 and 8.

The target in data set [3] is carbonic anhydrase II (Homo sapiens (Human), UniProt P00918). Kind of data set: Carbonic anhydrase II enzyme activity inhibition (4-NPA esterase activity). The class given is biochemical. The settings on record: 4-nitrophenyl acetate esterase activity, absorbance at 405 nm.

Structures are written as SMILES.

Results on 16 compounds are retold here after patent US9963456B2, “Pyrrolopyrimidine compound or salt thereof and compositions containing the pyrrolopyrimidine compound or salt thereof” (TAIHO PHARMACEUTICAL CO., LTD., priority 2014, dated 2018).

NAE (heterodimer of APPBP1 and UBA3), sequence (Q8TBC4 whole entry): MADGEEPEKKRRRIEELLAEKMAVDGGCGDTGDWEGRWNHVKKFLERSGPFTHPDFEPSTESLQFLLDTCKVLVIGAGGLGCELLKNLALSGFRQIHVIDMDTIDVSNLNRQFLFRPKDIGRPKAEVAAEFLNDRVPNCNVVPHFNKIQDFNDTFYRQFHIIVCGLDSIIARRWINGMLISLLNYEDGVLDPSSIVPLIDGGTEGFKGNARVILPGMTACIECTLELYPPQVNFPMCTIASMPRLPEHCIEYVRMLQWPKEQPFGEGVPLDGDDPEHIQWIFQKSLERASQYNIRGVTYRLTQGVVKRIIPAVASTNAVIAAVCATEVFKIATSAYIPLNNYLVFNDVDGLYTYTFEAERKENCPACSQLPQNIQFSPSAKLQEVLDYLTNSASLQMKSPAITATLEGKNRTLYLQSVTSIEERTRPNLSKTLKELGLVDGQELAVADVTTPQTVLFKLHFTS
NAE (heterodimer of APPBP1 and UBA3), sequence (Q13564 whole entry partner): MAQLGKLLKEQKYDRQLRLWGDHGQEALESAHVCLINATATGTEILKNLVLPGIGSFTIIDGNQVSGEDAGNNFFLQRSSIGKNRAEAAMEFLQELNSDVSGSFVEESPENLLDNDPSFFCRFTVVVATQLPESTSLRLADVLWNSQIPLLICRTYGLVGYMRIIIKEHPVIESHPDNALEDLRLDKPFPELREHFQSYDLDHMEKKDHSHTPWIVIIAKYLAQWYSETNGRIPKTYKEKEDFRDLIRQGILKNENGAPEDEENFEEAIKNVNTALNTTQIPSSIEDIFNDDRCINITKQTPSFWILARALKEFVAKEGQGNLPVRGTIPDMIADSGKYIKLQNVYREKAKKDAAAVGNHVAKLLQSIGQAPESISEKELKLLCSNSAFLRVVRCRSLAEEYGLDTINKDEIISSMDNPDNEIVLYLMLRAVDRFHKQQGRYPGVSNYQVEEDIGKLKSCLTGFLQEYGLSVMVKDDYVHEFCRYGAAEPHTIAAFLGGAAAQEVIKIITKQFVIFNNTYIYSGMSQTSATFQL

What is called IC50 is the concentration that gives 50% inhibition. Read a low IC50 as greater potency in that assay. As for `CN1CCOc2c1ccc(F)c2C#Cc1cn([C@@H]2O[C@H](CNS(N)(=O)=O)[C@@H](O)[C@H]2O)c2ncnc(N)c12` [Example 64, 8-[2-[4-Amino-7-[(2R,3R,4S,5R)-3,4-dihydroxy-5-[(sulfamoylamino)methyl]tetrahydrofuran-2-yl]pyrrolo[2,3-d]pyrimidin-5-yl]ethynyl]-7-fluoro-4-methyl-2,3-dihydro-1,4-benzoxazine], the IC50 in data set [1] stood at 0.0094 µM. Besides, in data set [2], the T/C15 turned out to be 8%, the “RTV comparison with the Comparative Example” value was “significantly lower than that of the Comparative Example”, the “RTV comparison with the control on day 15” value (“RTV comparison … on day 15” below) was “significantly lower than that of the control” and the “BWC15 Mean ± SD” value came out at 4.1 ± 1.6%. The IC50 in data set [3] was > 1 µM.

Take `Nc1ncnc2c1c(C#Cc1ccc(OCc3ccccc3)cn1)cn2[C@@H]1O[C@H](CNS(N)(=O)=O)[C@@H](O)[C@H]1O` [Example 52, 4-Amino-5-[2-(5-benzyloxy-2-pyridyl)ethynyl]-7-[(2R,3R,4S,5R)-3,4-dihydroxy-5-[(sulfamoylamino)methyl]tetrahydrofuran-2-yl]pyrrolo[2,3-d]pyrimidine]: the IC50 is 0.008 µM in data set [1] and > 1 µM in data set [3].

In the case of `Nc1ncnc2c1c(C#Cc1c(F)cc(N3CC[C@@H](F)C3)cc1F)cn2[C@@H]1O[C@H](CNS(N)(=O)=O)[C@@H](O)[C@H]1O` [Example 29, 4-Amino-5-[2-[2,6-difluoro-4-[(3R)-3-fluoropyrrolidin-1-yl]phenyl]ethynyl]-7-[(2R,3R,4S,5R)-3,4-dihydroxy-5-[(sulfamoylamino)methyl]tetrahydrofuran-2-yl]pyrrolo[2,3-d]pyrimidine], the IC50 was 0.0071 µM in data set [1] and > 1 µM in data set [3].

Regarding `CCS(=O)(=O)c1cccc(F)c1C#Cc1cn([C@H]2C[C@H](O)[C@@H](CNS(N)(=O)=O)O2)c2ncnc(N)c12` [Example 143, 4-Amino-5-[2-(2-ethylsulfonyl-6-fluoro-phenyl)ethynyl]-7-[(2R,4S,5R)-4-hydroxy-5-[(sulfamoylamino)methyl]tetrahydrofuran-2-yl]pyrrolo[2,3-d]pyrimidine], the IC50 in data set [1] is 0.024 µM; in data set [3], > 1 µM.

In the case of `Nc1ncnc2c1c(C#CC1(c3ccccc3)CC1)cn2[C@@H]1O[C@H](CNS(N)(=O)=O)[C@@H](O)[C@H]1O` [Example 10, 4-Amino-7-[(2R,3R,4S,5R)-3,4-dihydroxy-5-[(sulfamoylamino)methyl]tetrahydrofuran-2-yl]-5-[2-(1-phenylcyclopropyl)ethynyl]pyrrolo[2,3-d]pyrimidine], the IC50 in data set [1] was 0.024 µM; in data set [3], > 1 µM.

`CN1CCOc2c1ccc(F)c2C#Cc1cn([C@@H]2C[C@H](CNS(N)(=O)=O)[C@@H](O)[C@H]2O)c2ncnc(N)c12` [Example 122, 8-[2-[4-amino-7-[(1R,2S,3R,4R)-2,3-dihydroxy-4-[(sulfamoylamino)methyl]cyclopentyl]pyrrolo[2,3-d]pyrimidin-5-yl]ethynyl]-7-fluoro-4-methyl-2,3-dihydro-1,4-benzoxazine] yielded a half-maximal inhibitory concentration (IC50) in data set [1] of 0.02 µM. Further, in data set [2], the T/C15 was 6%, the “RTV comparison with the Comparative Example” value was “significantly lower than that of the Comparative Example”, the “RTV comparison … on day 15” value was “significantly lower than that of the control” and the “BWC15 Mean ± SD” value came to 6.0 ± 4.5%. Also, in data set [3], the IC50 is > 1 µM.

Regarding `CCCOc1cccc(F)c1C#Cc1cn([C@@H]2O[C@H](CNS(N)(=O)=O)[C@@H](O)[C@H]2O)c2ncnc(N)c12` [Example 60, 4-Amino-7-[(2R,3R,4S,5R)-3,4-dihydroxy-5-[(sulfamoylamino)methyl]tetrahydrofuran-2-yl]-5-[2-(2-fluoro-6-propoxy-phenyl)ethynyl]pyrrolo[2,3-d]pyrimidine], the IC50 in data set [1] was 0.0085 µM; in data set [3], > 1 µM.

Consider `Nc1ncnc2c1c(C#Cc1cccc3ccccc13)cn2[C@@H]1O[C@H](COS(N)(=O)=O)[C@@H](O)[C@H]1O` [Example 133, [(2R,3S,4R,5R)-5-[4-Amino-5-[2-(1-naphthyl)ethynyl]pyrrolo[2,3-d]pyrimidin-7-yl]-3,4-dihydroxy-tetrahydrofuran-2-yl]methyl sulfamate], for which half-maximal inhibition in data set [1] (IC50) was put at 0.025 µM. Besides, in data set [2], the “RTV comparison … on day 15” value is “significantly lower than that of the control” and the “change of the body weight compared with the control” value is reported as “almost the same as that of the control”.

On to `Nc1ncnc2c1c(C#Cc1c(F)cc(N3CCC3)cc1F)cn2[C@@H]1O[C@H](CNS(N)(=O)=O)[C@@H](O)[C@H]1O` [Example 43, 4-amino-5-[2-[4-(azetidin-1-yl)-2,6-difluoro-phenyl]ethynyl]-7-[(2R,3R,4S,5R)-3,4-dihydroxy-5-[(sulfamoylamino)methyl]tetrahydrofuran-2-yl]pyrrolo[2,3-d]pyrimidine], for which the values for the IC50 in data set [1] and in data set [3] were 0.0076 µM and > 1 µM, respectively.

Turning to `Cc1ccccc1-c1nc(-c2cn([C@@H]3O[C@H](CNS(N)(=O)=O)[C@@H](O)[C@H]3O)c3ncnc(N)c23)cs1` [Example 2, 4-[4-Amino-7-[(2R,3R,4S,5R)-3,4-dihydroxy-5-[(sulfamoylamino)methyl]tetrahydrofuran-2-yl]pyrrolo[2,3-d]pyrimidin-5-yl]-2-(o-tolyl)thiazole], the figures for the IC50 in data set [1] and in data set [3] were 0.0071 µM and > 1 µM, respectively.

Take `CNc1cc(F)c(C#Cc2cn([C@@H]3O[C@H](CNS(N)(=O)=O)[C@@H](O)[C@H]3O)c3ncnc(N)c23)c(F)c1` [Example 25, 4-Amino-5-[2-[2,6-difluoro-4-(methylamino)phenyl]ethynyl]-7-[(2R,3R,4S,5R)-3,4-dihydroxy-5-[(sulfamoylamino)methyl]tetrahydrofuran-2-yl]pyrrolo[2,3-d]pyrimidine]: the IC50 in data set [1] was 0.0048 µM; in data set [3], > 1 µM.

As for `Nc1ncnc2c1c(C#Cc1ccccc1F)cn2[C@@H]1O[C@H](CNS(N)(=O)=O)[C@@H](O)[C@H]1O` [Example 46, 4-Amino-7-[(2R,3R,4S,5R)-3,4-dihydroxy-5-[(sulfamoylamino)methyl]tetrahydrofuran-2-yl]-5-[2-(2-fluorophenyl)ethynyl]pyrrolo[2,3-d]pyrimidine], the IC50 was 0.013 µM in data set [1] and > 1 µM in data set [3].

Consider `Nc1ncnc2c1c(C#Cc1c(F)cc(N3CC[C@@H](O)C3)cc1F)cn2[C@@H]1C[C@H](CNS(N)(=O)=O)[C@@H](O)[C@H]1O` [Example 120, 4-Amino-5-[2-[2,6-difluoro-4-[(3R)-3-hydroxypyrrolidin-1-yl]phenyl]ethynyl]-7-[(1R,2S,3R,4R)-2,3-dihydroxy-4-[(sulfamoylamino)methyl]cyclopentyl]pyrrolo[2,3-d]pyrimidine], for which, in data set [1], the half-inhibitory concentration (IC50) amounted to 0.0043 µM. In data set [2], the “RTV comparison … on day 15” value is recorded as “significantly lower than that of the control” and the “change of the body weight compared with the control” value was “almost the same as that of the control”. The IC50 in data set [3] is > 1 µM.

Turning to `CCOc1cccc(F)c1C#Cc1cn([C@@H]2C=C(CNS(N)(=O)=O)[C@@H](O)[C@H]2O)c2ncnc(N)c12` [Example 129, 4-Amino-7-[(1R,4R,5S)-4,5-dihydroxy-3-[(sulfamoylamino)methyl]cyclopent-2-en-1-yl]-5-[2-(2-ethoxy-6-fluoro-phenyl)ethynyl]pyrrolo[2,3-d]pyrimidine], the IC50 in data set [3] is > 1 µM.

For `CCSc1cccc(F)c1C#Cc1cn([C@@H]2O[C@H](CNS(N)(=O)=O)[C@@H](O)[C@H]2O)c2ncnc(N)c12` [Example 66, 4-Amino-7-[(2R,3R,4S,5R)-3,4-dihydroxy-5-[(sulfamoylamino)methyl]tetrahydrofuran-2-yl]-5-[2-(2-ethylsulfanyl-6-fluoro-phenyl)ethynyl]pyrrolo[2,3-d]pyrimidine], the values for the IC50 in data set [1] and in data set [3] were 0.0071 µM and > 1 µM, respectively.

For the compound `COc1ccccc1C#Cc1cn([C@@H]2O[C@H](CNS(N)(=O)=O)[C@@H](O)[C@H]2O)c2ncnc(N)c12` [Example 47, 4-Amino-7-[(2R,3R,4S,5R)-3,4-dihydroxy-5-[(sulfamoylamino)methyl]tetrahydrofuran-2-yl]-5-[2-(2-methoxyphenyl)ethynyl]pyrrolo[2,3-d]pyrimidine], the values for the IC50 in data set [1] and in data set [3] were 0.0093 µM and > 1 µM, respectively.
